Data on six compounds can be found in patent US20120289472A1, “MOLECULES CAPABLE OF INDUCING CELL DEATH BY TARGETING THE MITOCHONDRIA AND APPLICATIONS THEREOF” (priority 2009, published 2012).

For data set [1], the system named is MEF-DKO murine fibroblasts. The data set is described as follows: Apoptosis of wild-type MEF and Bax/Bak-deficient MEF-DKO fibroblasts (Annexin V-Cy3, flow cytometry). It is filed as cell-based. The text has this: The graph (FIG. 6A) corresponds to a time course of cell death (quantified by flow cytometry by means of the Annexin V-Cy3 test) of MEF wild-type murine fibro-blasts compared with MEF-DKO murine fibroblasts.

Data set [2] relates to HeLa cells. The data set is described as follows: Cytotoxicity in HeLa cells by LDH release. It is filed as cell-based. As for the experimental part:
(A) HeLa cells were incubated for 6 h in the presence of 10 μM of poropeptide FITC-R8-Bax or of control peptide R8-Bax [Scr] (“scramble” version of the poropeptide), and then observed under an epifluorescence microscope. […] Scale 10 μm. […] HeLa cells were treated with increasing concentrations (5, 10, 25 and 50 μM) of peptide […] or […]. The cytotoxicity was determined by measuring the cellular release of lactate dehydrogenase (LDH) after 3, 6 or 24 h of incubation (n=4). […] The results are given in means and standard deviations. […] (25 μM). The cytotoxicity was determined by measuring the cellular release of lactate dehydrogenase (LDH) after 3, 6 or 24 h of incubation in the presence of 100 μM of zVAD.fmk or of buffer alone (‘DMSO’). The results are given as means and standard deviations. (D) Death rate (apoptosis/necrosis) of HeLa cells treated with poropeptide R8-Bax. The type of cell death was determined 24 h after transfection by observation of cell permeability to propidium iodide (necrosis) or of nuclear morphology after DNA staining with Hoechst 33342 (apoptosis). The green cells (expressing GFP) were visualized by epifluorescence microscopy. Approximately 300 cells were counted per experiment. The results are a mean of three independent experiments (the standard deviation is also represented).

A further data set deals with HT-1080 cells. Nature of the data set: Cell death of HT-1080 cells expressing GFP fused to Bax membrane insertion fragments. It is filed as cell-based, human. The note with it: zVAD.fmk 100 μM. As for the experimental part:
The various constructs were transfected into human cells cultured in vitro (HT-1080 and SK-MEL-28), and then the subcellular localization and the cytotoxicity induced by the Bax membrane insertion fragments fused to GFP were determined.
FIG. 5A gives the death rate (apoptosis/necrosis) of HT-1080 cells expressing GFP alone or as a fusion with various membrane insertion fragments of the Bax death protein. The cells were treated (+) or not (−) with the general caspase inhibitor zVAD.fmk (100 μM). Cell death was quantified 24 h after transfection by counting the number of green cells (expressing GFP) under an epifluorescence microscope. The type of cell death (apoptosis and necrosis) was determined through the membrane permeability to propidium iodide (necrosis) and the nuclear morphology (condensed or fragmented nuclei) after staining with Hoechst 33342 (apoptosis). […] The results represent the mean values (with the standard deviations) of the three experiments.
In this experiment, the cell death was quantified using the Annexin-V-Cyanine 3 test by flow cytometry 24 h after transient transfection of the cells with the plasmids of interest.

Another data set deals with isolated mitochondria. Nature of the data set: Cytochrome c release from isolated mitochondria (Western blotting of supernatant). It is filed as biochemical. The following applies: for incubation time at which cytochrome c is released: 10 μM. How it is done: The ex cellulo activity of poropeptide-Bax (106-134) was tested by determining its ability to promote the release of cytochrome c from the intermembrane space of isolated mitochondria. The results obtained are shown by FIG. 9 (A).
The peptide is incubated with the mitochondria for 5, 15, 30 or 60 min, and the mitochondrial release of cytochrome c into the supernatant (SN) is measured by Western blotting. The mitochondrial fractions (Mito) are calibrated using an antibody directed against the HSP70 or ATPase (subunit 6) mitochondrial proteins. With poropeptide-Bax (106-134), cytochrome c is released from the intermembrane space of the mitochondrion at 10 μM and in 5 min of incubation. No release is observed when an artificial antimicrobial peptide (KLAK) of sequence SEQ ID No. 2 KLAKLAKKLAKLAK is used.

For a further data set, the system named is Zebrafish eggs. The data set is described as follows: Microinjection into zebrafish eggs (mortality, malformations). It is filed as in vivo, Danio rerio. The text has this:
Poropeptide-Bax was microinjected in vivo. The zebrafish (Danio rerio) model was used because (i) the apoptotic machinery is conserved between human cells and fish cells; (ii) the egg corresponds to an integrated cell system compared with isolated mitochondria; (iii) zebrafish eggs can be easily injected routinely.
(A) Zebrafish eggs were microinjected at the 1-2 cell(s) stage with increasing concentrations of poro-peptide-Bax, of Bax-BH3 peptide or with ultrapure water ('mock'). A concentration of 100 μM inside the microinjection capillary corresponds to approximately […] molecules of peptide per egg. […] The data shown are representative of 2 independent experiments giving the same results. (B) Embryonic morphology 24 h after microinjection (100 μM of peptide).

Data set [3] relates to SK-MEL-28 human melanoma cells. Nature of the data set: Cell viability after microinjection into SK-MEL-28 melanoma cells. The class given is cell-based. The note with it: SK-MEL-28, 12 h after microinjection; for cell death / viability after microinjection: versus control. As for the experimental part:
Poropeptide-Bax was then mixed with a solution of dextran-fluorescein (so as to allow its visualization by epifluorescence microscopy), and then microinjected into SK-MEL-28 human melanoma cells. Cell viability was then monitored and quantified 12 hours after microinjection.
(A) Micrographs showing SK-MEL-28 human melanoma cells injected with Dextran-FITC fluorescent tracer alone (‘mock’) or mixed with poropeptide-Bax. The cells were photographed 12 h after microinjection. […] Magnification×800. (B) Cell viability after microinjection of poropeptide-Bax or of Bax-BH3, KLAK or R8 peptide. The cells microinjected were visualized by means of the Dextran-FITC tracer. […] The data shown are representative of 2 independent experiments giving the same results.

The test system of data set [4] is mitochondria isolated from rat liver. The data set is described as follows: Swelling and depolarization of mitochondria isolated from rat liver. The class given is biochemical. How it is done:
Poropeptide-Bax (106-134) induces swelling of the mitochondria (DD50=1.68±0.39 μM) and a drop in their transmembrane potential (SD50=3.98±0.57 μM). These two parameters were measured using mitochondria isolated from rat liver, incubated in the presence of various concentrations of poropeptide-Bax (106-134) (NT=not treated).

The subject of data set [5] is HeLa cells. Nature of the data set: Internalization of fluorescent peptides by HeLa cells (epifluorescence microscopy). It is filed as cell-based. As for the experimental part: The poropeptide of sequence SEQ ID No. 1, comprising a polyarginine N-terminal extension (R8) separated by a glycine residue, was used. A fluorescein isothiocyanate (FITC) group was added in the C-terminal position so as to allow its visualization by epifluorescence microscopy. The R8-Scr-FITC peptide is a “scramble” sequence of the sequence present in the R8-Bax [106-134]-FITC peptide, i.e. a control sequence in which the amino acids (their order in the sequence) have been mixed-up.
(A) HeLa cells were incubated for 6 h in the presence of 10 μM of poropeptide FITC-R8-Bax or of control peptide R8-Bax [Scr] (“scramble” version of the poropeptide), and then observed under an epifluorescence microscope. […] Scale 10 μm. […] The cytotoxicity was determined by measuring the cellular release of lactate dehydrogenase (LDH) after 3, 6 or 24 h of incubation (n=4). […] The cytotoxicity was determined by measuring the cellular release of lactate dehydrogenase (LDH) after 3, 6 or 24 h of incubation in the presence of 100 μM of zVAD.fmk or of buffer alone (‘DMSO’). […] The type of cell death was determined 24 h after transfection by observation of cell permeability to propidium iodide (necrosis) or of nuclear morphology after DNA staining with Hoechst 33342 (apoptosis). […] Approximately 300 cells were counted per experiment. […]

Like-named read-outs stand apart in the source and are kept apart here. Where a SMILES comes first, the peptide text is derived from it. Where no end group is shown, it is not given here. The star is where a group is joined. Cbz = O=C(OCc1ccccc1)*; CH2F = FC* Bounds are passed on as bounds.

As to `CN[C@@H]1C[C@H]2O[C@@](C)([C@@H]1OC)n1c3ccccc3c3c4c(c5c6ccccc6n2c5c31)C(=O)NC4` [staurosporine], the “apoptosis induced in MEF-DKO cells” value in data set [1] is reported as “resistant”.
With `COC(=O)C[C@H](NC(=O)[C@H](C)NC(=O)[C@@H](NC(=O)OCc1ccccc1)C(C)C)C(=O)CF` [zVAD.fmk, reference compound] (Cbz-Val-Ala-Asp(OMe)-CH2F), in the data set on HeLa cells [2] (HeLa, zVAD.fmk 100 μM, poropeptide 25 μM, 3, 6 or 24 h), the “effect of caspase inhibitor on cell death induced by poropeptide R8-Bax [106-134] (LDH release)” value is recorded as “reduces cell death”. Moreover, the “effect of caspase inhibitor on apoptosis caused by Bax membrane insertion fragments” value in the data set on HT-1080 cells is recorded as “blocking of the apoptosis”.
Regarding “H-NWGRVVALFYFASKLVLKALSTKVPELIR-OH [poropeptide-Bax (106-134)]”, in the data set with isolated mitochondria, the “minimum concentration for which cytochrome c release is observed” value was 10 µM and the “incubation time at which cytochrome c is released” value was found to be 5 min. In addition, in the data set with isolated mitochondria (listed as Poropeptide-Bax (106-134)), the “incubation time at which cytochrome c is released” value is given as at most 5 min. Also, the embryonic morphology result in the data set on Zebrafish eggs (24 h after microinjection, 100 μM of peptide, compared with BH3 peptide group) is on record as “Severe malformations”. Also, the “cytotoxic effects after introduction into zebrafish eggs” value with Zebrafish eggs (increasing concentrations, microinjection at 1-2 cell stage) was “dose-dependent cytotoxic effects”. In data set [3], the “cell morphology after microinjection” value is “characteristic morphological manifestations of apoptosis” and the “cell death / viability after microinjection” value (“cell death / viability” below) was “substantial cell death”. Further, the EC50 in data set [4] (read-out: drop in transmembrane potential (SD50)) was 3980 ± 570 nM. Also, the EC50 in data set [4] (read-out: swelling of the mitochondria (DD50)) worked out at 1680 ± 390 nM.
Take “KLAKLAKKLAKLAK [artificial antimicrobial peptide, reference compound]”: in the data set on isolated mitochondria (incubation 5-60 min), the “cytochrome c release from intermembrane space” value is “No release”. In addition, in data set [3], the “cell death / viability” value is “no significant effect”.
As to “R8-Bax [106-134]: poropeptide of SEQ ID No. 1 with polyarginine N-terminal extension (R8) separated by a glycine residue, FITC group added (RRRRRRRRGNWGRVVALFYFASKLVLKALCTKVPELIR; also: FITC group added, position not given here; UniProt Q07812 106-134, looked up, fragment)”, the time to internalization result with HeLa cells [5] (HeLa cells in culture in vitro) is given as “in less than one hour”. In the data set on HeLa cells [5] (HeLa, 10 μM, 6 h), the “cytoplasmic labeling of cells” value is given as “strong cytoplasmic labeling”. Moreover, the “cytotoxicity by cellular release of lactate dehydrogenase (LDH)” value in the data set on HeLa cells [2] (HeLa, 5, 10, 25 and 50 μM, 3, 6 or 24 h) is “loss of cell viability which is dose-dependent and incubation time-dependent”.
“RRRRRRRR [R8, control peptide, a polyarginine intracellular transduction motif, reference compound]”: the “cell death / viability” value in data set [3] is given as “viability rates comparable to the control”.
